Assay results reported in the supplement of paper PMC10307832.

Each cell line was assayed with C1=CC2=NC=CN=C2C=C1/C=C/3\C(=O)NC(=O)S3 + O=C(CCCCCCC(=O)Nc1ccccc1)NO [Vorinostat] (partner 1 µM) (assay: relative viability (nuclei count vs DMSO), 5 days (fraction); higher = more cells survive). Details: first compound 0.02 µM.
Summary of the method: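 Dosing by pin tool came one day after lung cancer cell lines were seeded in 1536-well plates, using either one drug or a fixed anchor-drug dose plus five library-drug doses (not always all listed) in √10 steps. After 5 days, nuclei were counted on 4× images. Relative viability is treated-well nuclei count divided by vehicle-well nuclei count, and values are medians of duplicate plates.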

Cell Line | relative viability
HARA | 0.548
NCI-H322M | 0.893
LCLC-97TM1 | 0.617
NCI-H2009 | 0.659
A-427 | 0.791
NCI-H441 | 0.794
NCI-H661 | 0.75
NCI-H1734 | 0.846
NCI-H460 | 0.657
NCI-H2347 | 0.53
SK-LU-1 | 0.809
NCI-H1395 | 1
201T | 0.763
NCI-H1915 | 0.578
HCC-827 | 0.797
LXF-289 | 0.778

Cell Line | relative viability
NCI-H23 | 0.508
NCI-H647 | 0.545
CAL-12T | 0.78
NCI-H1651 | 0.504
EPLC-272H | 0.385
NCI-H2228 | 0.844
NCI-H1355 | 0.584
NCI-H3122 | 0.926
NCI-H1437 | 0.728
NCI-H1755 | 0.681
NCI-H2023 | 0.675
HCC-15 | 0.733
NCI-H1793 | 0.635
PC-14 | 0.799
EKVX | 0.704
LC-2-ad | 0.589

Same assay, conditions: first compound 0.06325 µM

Cell Line | relative viability
HARA | 0.463
NCI-H322M | 0.852
LCLC-97TM1 | 0.637
NCI-H2009 | 0.716
A-427 | 0.877
NCI-H441 | 0.786
NCI-H661 | 0.86
NCI-H460 | 0.668
NCI-H2347 | 0.565
SK-LU-1 | 0.818
NCI-H1395 | 0.733
201T | 0.949
NCI-H1915 | 0.525
HCC-827 | 0.702
LXF-289 | 0.576
NCI-H23 | 0.588

Cell Line | relative viability
NCI-H647 | 0.898
CAL-12T | 0.923
NCI-H1651 | 0.502
EPLC-272H | 0.411
NCI-H2228 | 0.821
NCI-H1355 | 0.571
NCI-H3122 | 0.981
NCI-H1437 | 0.874
NCI-H1755 | 0.695
NCI-H2023 | 0.51
HCC-15 | 0.737
NCI-H1793 | 0.616
PC-14 | 0.713
EKVX | 0.576
LC-2-ad | 0.768

Same assay, conditions: first compound 0.2 µM

Cell Line | relative viability
HARA | 0.522
NCI-H322M | 0.905
LCLC-97TM1 | 0.659
NCI-H2009 | 0.714
A-427 | 0.888
NCI-H441 | 0.948
NCI-H661 | 0.845
NCI-H1734 | 0.907
NCI-H460 | 0.759
NCI-H2347 | 0.718
SK-LU-1 | 0.881
NCI-H1395 | 0.824
201T | 0.985
NCI-H1915 | 0.636
HCC-827 | 0.833
LXF-289 | 0.73

Cell Line | relative viability
NCI-H23 | 0.697
NCI-H647 | 0.485
CAL-12T | 0.663
NCI-H1651 | 0.6
EPLC-272H | 0.562
NCI-H2228 | 0.616
NCI-H1355 | 0.623
NCI-H3122 | 1.03
NCI-H1437 | 0.815
NCI-H1755 | 0.832
NCI-H2023 | 0.739
HCC-15 | 0.872
NCI-H1793 | 0.765
PC-14 | 1.01
EKVX | 0.761
LC-2-ad | 0.707

Same assay, conditions: first compound 0.6325 µM

Cell Line | relative viability
HARA | 0.487
NCI-H322M | 0.891
LCLC-97TM1 | 0.576
NCI-H2009 | 0.685
A-427 | 0.864
NCI-H441 | 0.845
NCI-H661 | 0.799
NCI-H1734 | 0.767
NCI-H460 | 0.716
NCI-H2347 | 0.49
SK-LU-1 | 0.777
NCI-H1395 | 0.77
201T | 0.898
NCI-H1915 | 0.468
HCC-827 | 0.874
LXF-289 | 0.778

Cell Line | relative viability
NCI-H23 | 0.546
NCI-H647 | 0.546
CAL-12T | 0.629
NCI-H1651 | 0.588
EPLC-272H | 0.413
NCI-H2228 | 0.572
NCI-H1355 | 0.631
NCI-H3122 | 1.07
NCI-H1437 | 0.811
NCI-H1755 | 0.858
NCI-H2023 | 0.632
HCC-15 | 0.844
NCI-H1793 | 0.676
PC-14 | 0.689
EKVX | 0.709
LC-2-ad | 0.668

Same assay, conditions: first compound 2 µM

Cell Line | relative viability
HARA | 0.406
NCI-H322M | 0.744
LCLC-97TM1 | 0.153
NCI-H2009 | 0.703
A-427 | 0.947
NCI-H441 | 0.509
NCI-H661 | 0.948
NCI-H1734 | 0.556
NCI-H460 | 0.819
NCI-H2347 | 0.591
SK-LU-1 | 0.72
NCI-H1395 | 0.668
201T | 0.723
NCI-H1915 | 0.499
HCC-827 | 0.465
LXF-289 | 0.852

Cell Line | relative viability
NCI-H23 | 0.385
NCI-H647 | 0.494
CAL-12T | 0.762
NCI-H1651 | 0.483
EPLC-272H | 0.524
NCI-H2228 | 0.719
NCI-H1355 | 0.519
NCI-H3122 | 1.05
NCI-H1437 | 0.815
NCI-H1755 | 0.818
NCI-H2023 | 0.441
HCC-15 | 0.702
NCI-H1793 | 0.679
PC-14 | 0.571
EKVX | 0.594
LC-2-ad | 0.434
